Assay results reported in US20240252488A1 (KOREA RESEARCH INSTITUTE OF CHEMICAL TECHNOLOGY, priority 2020, published 2024).

Tests used:
[1] = target: T1, MLKL (Homo sapiens, UniProt Q8NB16); test: Measurement of binding affinity with MLKL receptor (competitive binding assay, Kd); parameters: made in house; host or cells: HEK 293 cell line (T7 phage in E. coli BL21-derived host is also described)
T1 sequence (Q8NB16 1-471): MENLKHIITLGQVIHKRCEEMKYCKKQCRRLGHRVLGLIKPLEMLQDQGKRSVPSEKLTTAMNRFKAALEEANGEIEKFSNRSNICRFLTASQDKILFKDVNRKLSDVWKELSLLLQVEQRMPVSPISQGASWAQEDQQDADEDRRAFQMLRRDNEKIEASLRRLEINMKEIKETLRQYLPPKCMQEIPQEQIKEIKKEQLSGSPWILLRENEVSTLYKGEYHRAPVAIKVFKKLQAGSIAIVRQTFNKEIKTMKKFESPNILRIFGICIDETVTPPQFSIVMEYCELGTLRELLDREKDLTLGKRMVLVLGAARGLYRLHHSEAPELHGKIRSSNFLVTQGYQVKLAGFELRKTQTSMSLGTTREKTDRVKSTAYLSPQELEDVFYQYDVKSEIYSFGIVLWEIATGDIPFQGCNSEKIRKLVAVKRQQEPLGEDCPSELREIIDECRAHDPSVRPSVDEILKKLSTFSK
How it was run: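 HEK 293-expressed, DNA-tagged MLKL; ligand beads blocked with biotin and SeaBlock/1% BSA/0.05% Tween 20/1 mM DTT buffer. Cpd from 111× DMSO stock, 0.9% DMSO final. Eluted kinase by qPCR → Kd.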

[2] = test system: FADD−/− Jurkat cells; test: Necroptosis inhibition assay, TNF-α-induced necroptosis (CellTiter-Glo 2.0); assay type: cell-based, human; settings: TNF-α 15 ng/mL; for Necroptosis inhibition assay (Rescue %) 1 μM: compound 1 μM; for Necroptosis inhibition assay (Rescue %) 10 μM: compound 10 μM
How it was run: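 Compound is added to cells at final concentrations of 0.1, 1 and 10 μM and left 30 minutes at room temperature. Necroptosis is induced with 15 ng/mL TNF-α, culture continues 20 to 24 hours at 37° C, and ATP-based luminescence reports viability.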

[3] = target: T1, MLKL; test: MLKL degradation assay in HepG2 cell line (western blot); assay type: cell-based; parameters: endogenous in cells; host or cells: HepG2 or HaCaT; settings: cell line not given; for Degradation assay (Degradation %) 1 μM: compound 1 μM; for Degradation assay (Degradation %) 10 μM: compound 10 μM
How it was run: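 Chemiluminescent western blot signal reports remaining MLKL protein in HepG2 cells after 20-24 h treatment with compound at a final 1 or 10 μM. Equal protein (10-15 μg, BCA) is loaded per lane.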

| Structure (SMILES) | Kd [1] | Necroptosis inhibition assay (Rescue %) 1 μM ([2]; FADD−/− Jurkat cells) | Necroptosis inhibition assay (Rescue %) 10 μM ([2]; FADD−/− Jurkat cells) | Degradation assay (Degradation %) 1 μM [3] | Degradation assay (Degradation %) 10 μM [3] | Necroptosis inhibition assay (Rescue %) 1 μM [2] | Necroptosis inhibition assay (Rescue %) 10 μM [2] |
| --- | --- | --- | --- | --- | --- | --- | --- |
| Nc1ncc(-c2cnn(C3CCN(CC4CCN(CC5CCN(C(=O)c6ccc7c(c6)CN(C6CCC(=O)NC6=O)C7=O)CC5)CC4)CC3)c2)nc1C(=O)O[C@@H](C(=O)Nc1ccc(F)cc1)c1ccccc1 (stereo partly drawn) [TDH-550, (R)-2-((4-fluorophenyl)amino)-2-oxo-1-phenylethyl 3-amino-6-(1-(1-((1-((1-(2-(2,6-dioxopiperidin-3-yl)-1-oxoisoindoline-5-carbonyl)piperidin-4-yl)methyl)piperidin-4-yl)methyl)piperidin-4-yl)-1H-pyrazol-4-yl)pyrazine-2-carboxylate] | 0.53 nM | 47.98% | 20.62% | 88.92% | 86.09% |  |  |
| Nc1ncc(-c2cnn([C@@H]3CCN(CC4CCN(C(=O)CNc5cccc6c5C(=O)N(C5CCC(=O)NC5=O)C6=O)CC4)C3)c2)nc1C(=O)OC(C(=O)Nc1ccc(F)cc1)c1ccccc1 (stereo partly drawn) [TDH-285, 2-((4-fluorophenyl)amino)-2-oxo-1-phenylethyl 3-amino-6-(1-((3R)-1-((1-((2-(2,6-dioxopiperidin-3-yl)-1,3-dioxoisoindolin-4-yl)glycyl)piperidin-4-yl)methyl)pyrrolidin-3-yl)-1H-pyrazol-4-yl)pyrazine-2-carboxylate] | 13 nM |  |  | 56.55% | 50.66% | 36.72% | 40.43% |
| COc1ccc(C(=O)N2CCC(C(=O)N3CCC(OCCN4CCC(CN5CCC(n6cc(-c7cnc(N)c(C(=O)O[C@@H](C(=O)Nc8ccc(F)cc8)c8ccccc8)n7)cn6)CC5)CC4)CC3)CC2)cc1N1CCC(=O)NC1=O [TDH-512, (R)-2-((4-fluorophenyl)amino)-2-oxo-1-phenylethyl 3-amino-6-(1-(1-((1-(2-((1-(1-(3-(2,4-dioxotetrahydropyrimidin-1(2H)-yl)-4-methoxybenzoyl)piperidine-4-carbonyl)piperidin-4-yl)oxy)ethyl)piperidin-4-yl)methyl)piperidin-4-yl)-1H-pyrazol-4-yl)pyrazine-2-carboxylate] | 0.74 nM | 24.43% | 52.33% | 51.41% | 80.48% |  |  |
| Nc1ncc(-c2cnn(C3CCN(CCOCCOCCOCCNC(=O)CNc4cccc5c4C(=O)N(C4CCC(=O)NC4=O)C5=O)CC3)c2)nc1C(=O)O[C@@H](C(=O)Nc1ccc(F)cc1)c1ccccc1 (stereo partly drawn) [TDH-143, (R)-2-((4-fluorophenyl)amino)-2-oxo-1-phenylethyl 3-amino-6-(1-(1-(1-((2-(2,6-dioxopiperidin-3-yl)-1,3-dioxoisoindolin-4-yl)amino)-2-oxo-6,9,12-trioxa-3-azatetradecan-14-yl)piperidin-4-yl)-1H-pyrazol-4-yl)pyrazine-2-carboxylate] | 4.5 nM |  |  | 64% | 85.29% | 20.58% | 64.35% |
| Nc1ncc(-c2cnn(C3CCN(C(=O)CCC4CCN(C(=O)C5CN(c6ccc7c(c6)C(=O)N(C6CCC(=O)NC6=O)C7=O)C5)CC4)CC3)c2)nc1C(=O)O[C@@H](C(=O)Nc1ccc(F)cc1)c1ccccc1 (stereo partly drawn) [TDH-428, (R)-2-((4-fluorophenyl)amino)-2-oxo-1-phenylethyl 3-amino-6-(1-(1-(3-(1-(1-(2-(2,6-dioxopiperidin-3-yl)-1,3-dioxoisoindolin-5-yl)azetidine-3-carbonyl)piperidin-4-yl)propanoyl)piperidin-4-yl)-1H-pyrazol-4-yl)pyrazine-2-carboxylate] | 4.1 nM | 27.27% | 9.58% | 58.66% | 85.95% |  |  |
| Nc1ncc(-c2cnn(C3CCN(CCC4CCN(C(=O)COc5ccc6c(c5)C(=O)N(C5CCC(=O)NC5=O)C6=O)CC4)CC3)c2)cc1C(=O)OC(C(=O)Nc1ccc(F)cc1)c1ccccc1 (stereo not shown) [TDH-300, 2-((4-fluorophenyl)amino)-2-oxo-1-phenylethyl 2-amino-5-(1-(1-(2-(1-(2-((2-(2,6-dioxopiperidin-3-yl)-1,3-dioxoisoindolin-5-yl)oxy)acetyl)piperidin-4-yl)ethyl)piperidin-4-yl)-1H-pyrazol-4-yl)nicotinate] | 9 nM |  |  | 54.31% | 69.42% | 55.98% | 38.09% |
| Nc1ncc(-c2cnn(C3CCN(CC4CCN(C(=O)CNc5ccc6c(c5)C(=O)N(C5CCC(=O)NC5=O)C6=O)CC4)CC3)c2)nc1C(=O)O[C@@H](C(=O)Nc1ccc(F)cc1)c1ccccc1 (stereo partly drawn) [TDH-137, (R)-2-((4-fluorophenyl)amino)-2-oxo-1-phenylethyl 3-amino-6-(1-(1-((1-((2-(2,6-dioxopiperidin-3-yl)-1,3-dioxoisoindolin-5-yl)glycyl)piperidin-4-yl)methyl)piperidin-4-yl)-1H-pyrazol-4-yl)pyrazine-2-carboxylate] | 2.8 nM |  |  | 54.49% | 54.94% | 76.05% | 63.68% |
| Nc1ncc(-c2cnn(C3CCN(CCC4CCN(C(=O)COc5ccc6c(c5)C(=O)N(C5CCC(=O)NC5=O)C6=O)CC4)CC3)c2)nc1C(=O)O[C@@H](C(=O)Nc1ccc(F)cc1)c1ccccc1 (stereo partly drawn) [TDH-201, (R)-2-((4-fluorophenyl)amino)-2-oxo-1-phenylethyl 3-amino-6-(1-(1-(2-(1-(2-((2-(2,6-dioxopiperidin-3-yl)-1,3-dioxoisoindolin-5-yl)oxy)acetyl)piperidin-4-yl)ethyl)piperidin-4-yl)-1H-pyrazol-4-yl)pyrazine-2-carboxylate] | 1.3 nM |  |  | 85.96% | 82.98% | 91.53% | 62.79% |
| Nc1ncc(-c2cnn(C3CCN(CCOCCOCCNC(=O)CNc4cccc5c4C(=O)N(C4CCC(=O)NC4=O)C5=O)CC3)c2)nc1C(=O)N[C@@H](C(=O)Nc1ccc(F)cc1)c1ccccc1 (stereo partly drawn) [TDH-217, 3-amino-6-(1-(1-(2-(2-(2-(2-((2-(2,6-dioxopiperidin-3-yl)-1,3-dioxoisoindolin-4-yl)amino)acetamido)ethoxy)ethoxy)ethyl)piperidin-4-yl)-1H-pyrazol-4-yl)-N-((R)-2-((4-fluorophenyl)amino)-2-oxo-1-phenylethyl)pyrazine-2-carboxamide] | 66 nM |  |  | 11.62% | 31.11% | 24.76% | 48.87% |
| Nc1ncc(-c2cnn(C3CCN(CC4CCN(CCC5CCN(C(=O)Cc6cccc(NC7=CC(=O)N(C8CCC(=O)NC8=O)C7=O)c6)CC5)CC4)CC3)c2)nc1C(=O)O[C@@H](C(=O)Nc1ccc(F)cc1)c1ccccc1 (stereo partly drawn) [TDH-507, (R)-2-((4-fluorophenyl)amino)-2-oxo-1-phenylethyl 3-amino-6-(1-(1-((1-(2-(1-(2-(3-((1-(2,6-dioxopiperidin-3-yl)-2,5-dioxo-2,5-dihydro-1H-pyrrol-3-yl)amino)phenyl)acetyl)piperidin-4-yl)ethyl)piperidin-4-yl)methyl)piperidin-4-yl)-1H-pyrazol-4-yl)pyrazine-2-carboxylate] | 1.1 nM | 26.03% | 14.19% | 82.75% | 86.37% |  |  |
| Nc1ncc(-c2cnn(C3CCN(C4CC5(CCN(CC6CCN(c7ccc8c(c7)C(=O)N(C7CCC(=O)NC7=O)C8=O)CC6)CC5)C4)CC3)c2)nc1C(=O)O[C@@H](C(=O)Nc1ccc(F)cc1)c1ccccc1 (stereo partly drawn) [TDH-472, (R)-2-((4-fluorophenyl)amino)-2-oxo-1-phenylethyl 3-amino-6-(1-(1-(7-((1-(2-(2,6-dioxopiperidin-3-yl)-1,3-dioxoisoindolin-5-yl)piperidin-4-yl)methyl)-7-azaspiro[3.5]nonan-2-yl)piperidin-4-yl)-1H-pyrazol-4-yl)pyrazine-2-carboxylate] | 1.6 nM | 27.45% | 1.07% | 50.63% | 69.94% |  |  |
